Laboratory results as given in ChEMBL document CHEMBL1141154, “Indolin-2-ones with high in vivo efficacy in a model for multiple sclerosis” (J Med Chem, 2005).

Legend:
Mus musculus [1] = assay: In vivo percent inhibition of multiple sclerosis (MS) by the compound upon intraperitoneal administration at a dose of 50 mg/kg on EAE model (mice immunized for EAE induction and assessed clinically for 21 days); type: functional; conditions: ip, 504 h
PBMC = assay: In vitro inhibitory concentration on the production of pro-inflammatory cytokine IL-2 in PBMC (Peripheral blood mononuclear cells) determined by IL-2 PBMC assay; type: functional, cell-based; conditions: Homo sapiens
[2] = biological target: Vascular endothelial growth factor receptor 2 (Homo sapiens, UniProt P35968); assay: In vitro inhibition of KDR
Mus musculus [3] = assay: In vivo percent inhibition of multiple sclerosis (MS) by the compound upon oral administration at a dose of 50 mg/kg on EAE model (mice immunized for EAE induction and assessed clinically for 21 days); type: functional; conditions: 504 h
Mus musculus [4] = assay: In vivo percent inhibition of multiple sclerosis (MS) by the compound upon intraperitoneal administration at a dose of 50 mg/kg on EAE model (mice immunized for EAE induction and assessed clinically for 21 days); non significant effect; type: functional; conditions: ip, 504 h

Vascular endothelial growth factor receptor 2, sequence (P35968 whole entry): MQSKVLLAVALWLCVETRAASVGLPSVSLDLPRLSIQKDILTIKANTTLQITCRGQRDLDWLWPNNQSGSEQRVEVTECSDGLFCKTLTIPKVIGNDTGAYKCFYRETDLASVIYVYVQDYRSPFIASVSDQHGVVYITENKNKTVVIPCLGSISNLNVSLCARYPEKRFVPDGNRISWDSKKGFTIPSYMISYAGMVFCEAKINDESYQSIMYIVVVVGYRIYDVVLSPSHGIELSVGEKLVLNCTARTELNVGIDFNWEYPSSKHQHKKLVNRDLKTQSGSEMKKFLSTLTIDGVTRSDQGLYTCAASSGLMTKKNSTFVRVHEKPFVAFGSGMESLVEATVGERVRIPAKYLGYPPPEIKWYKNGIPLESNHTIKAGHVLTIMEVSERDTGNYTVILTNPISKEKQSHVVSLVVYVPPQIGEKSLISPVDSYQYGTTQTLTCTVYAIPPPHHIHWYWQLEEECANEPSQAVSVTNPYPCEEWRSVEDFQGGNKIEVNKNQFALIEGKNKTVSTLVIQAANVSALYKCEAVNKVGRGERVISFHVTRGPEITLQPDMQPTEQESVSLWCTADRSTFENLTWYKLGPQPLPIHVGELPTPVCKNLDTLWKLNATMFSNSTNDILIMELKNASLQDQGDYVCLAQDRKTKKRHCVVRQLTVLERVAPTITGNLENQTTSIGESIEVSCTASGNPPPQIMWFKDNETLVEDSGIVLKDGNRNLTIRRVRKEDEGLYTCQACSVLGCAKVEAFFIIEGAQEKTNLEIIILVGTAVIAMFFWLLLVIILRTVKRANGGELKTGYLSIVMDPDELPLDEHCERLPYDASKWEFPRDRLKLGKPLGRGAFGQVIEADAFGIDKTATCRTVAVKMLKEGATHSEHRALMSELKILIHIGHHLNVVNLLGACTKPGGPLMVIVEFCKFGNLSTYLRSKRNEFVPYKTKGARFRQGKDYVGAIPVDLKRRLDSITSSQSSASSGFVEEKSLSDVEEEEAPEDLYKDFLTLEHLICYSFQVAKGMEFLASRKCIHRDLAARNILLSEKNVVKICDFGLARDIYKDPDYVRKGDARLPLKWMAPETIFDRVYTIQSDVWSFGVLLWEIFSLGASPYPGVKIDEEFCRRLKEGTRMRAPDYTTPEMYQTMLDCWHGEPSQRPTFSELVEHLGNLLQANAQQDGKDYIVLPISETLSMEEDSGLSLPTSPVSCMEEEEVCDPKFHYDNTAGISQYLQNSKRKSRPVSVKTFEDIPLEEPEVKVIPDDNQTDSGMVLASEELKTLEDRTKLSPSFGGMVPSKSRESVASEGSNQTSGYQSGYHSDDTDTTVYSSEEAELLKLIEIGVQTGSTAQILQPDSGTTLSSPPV

Row | SMILES | inhibition in vivo at 50 mg/kg (Mus musculus [1]) [%] | IC50 (PBMC) [nM] | IC50 [2] [nM] | inhibition in vivo at 50 mg/kg (Mus musculus [3]) [%] | inhibition in vivo at 50 mg/kg (Mus musculus [4]) [%]
1 | CCOC(=O)c1cc(C)c(/C=C2\C(=O)Nc3ccccc32)[nH]1 | -44 | 14 | 8000 | – | –
2 | O=C1Nc2ccccc2/C1=C/c1c[nH]c2ccccc12 | 84 | 8 | – | 32 | –
3 | Cc1[nH]c(/C=C2\C(=O)Nc3ccccc32)c(C)c1Br | -78 | 3 | 320 | – | –
4 | Cc1cc(C)c(/C=C2\C(=O)N(O)c3ccccc32)[nH]1 | -67 | 18 | 500 | – | –
5 | CC(=O)ON1C(=O)/C(=C\c2[nH]c(C)cc2C)c2ccccc21 | -48 | 11 | 400 | – | –
6 | COc1ccc(OC)c(/C=C2/C(=O)Nc3ccccc32)c1 | -90 | 21 | – | -49 | –
7 | Cc1cc(CO)[nH]c1/C=C1\C(=O)Nc2ccccc21 | -57 | 50 | 320 | – | –
8 | Cc1cc(C(=O)NCCO)[nH]c1/C=C1\C(=O)Nc2ccccc21 | -41 | 30 | > 10000 | – | –
9 | Cc1cc(C)c(/C=C2\C(=O)N(CN3CCN(C)CC3)c3ccccc32)[nH]1 | – | – | – | -56 | –
10 | Cc1[nH]c(/C=C2\C(=O)Nc3ccccc32)c(C)c1Cl | -96 | 4 | 1000 | – | –
11 | Cc1cc(C(=O)O)[nH]c1/C=C1\C(=O)Nc2ccccc21 | – | > 1000 | > 10000 | – | -23
12 | Cc1cc(C)c(/C=C2\C(=O)Nc3ccc(O)cc32)[nH]1 | – | 1000 | 100 | – | -12
13 | O=C1Nc2ccccc2/C1=C/c1ccc[nH]1 | – | – | – | – | -9
14 | Cc1cc(C)c(/C=C2\C(=O)Nc3ccccc32)[nH]1 [SEMAXANIB] | -98 | – | – | – | –
15 | Clc1ccc(Nc2nnc(Cc3ccncc3)c3ccccc23)cc1 [VATALANIB] | – | > 1000 | – | – | –
